Tests used:
Assay in all cases: cells
Conditions in all cases: Homo sapiens
LS-123 = format: functional, cell-based
Description: SANGER: Inhibition of human LS-123 cell growth in a cell viability assay.

COLO-829 = format: functional, cell-based
Description: SANGER: Inhibition of human COLO-829 cell growth in a cell viability assay.

NB10 = format: functional, cell-based;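 further: growth inhibition of NB10 cells, read out by a cell viability assay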
Description: SANGER: Inhibition of human NB10 cell growth in a cell viability assay.

UACC-257 = format: functional, cell-based
Description: SANGER: Inhibition of human UACC-257 cell growth in a cell viability assay.

U2OS = format: functional, cell-based, U-2-OS;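 further: growth inhibition of human U-2-OS cells, determined with a cell viability assay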
Description: SANGER: Inhibition of human U-2-OS cell growth in a cell viability assay.

NCI-H1581 = format: functional, cell-based;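 further: cell growth inhibition read out by a viability assay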
Description: SANGER: Inhibition of human NCI-H1581 cell growth in a cell viability assay.

OVCAR-5 = format: functional, cell-based;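 further: growth inhibition of human OVCAR-5 cells, read out with a cell viability assay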
Description: SANGER: Inhibition of human OVCAR-5 cell growth in a cell viability assay.

SNU-C2B = format: functional, cell-based;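 further: cell viability readout used to measure compound-driven suppression of SNU-C2B cell proliferation, IC50 marking half-maximal growth inhibition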
Description: SANGER: Inhibition of human SNU-C2B cell growth in a cell viability assay.

AM-38 = format: functional, cell-based;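 further: growth inhibition of AM-38 cells of human origin, read out by a cell viability assay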
Description: SANGER: Inhibition of human AM-38 cell growth in a cell viability assay.

K5 = format: functional, cell-based
Description: SANGER: Inhibition of human K5 cell growth in a cell viability assay.

NCI-H747 = format: functional, cell-based;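 further: growth inhibition of human NCI-H747 cells, read out by a cell viability assay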
Description: SANGER: Inhibition of human NCI-H747 cell growth in a cell viability assay.

NCI-H526 = format: functional, cell-based;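 further: growth inhibition of the human NCI-H526 cell line, measured by a cell viability assay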
Description: SANGER: Inhibition of human NCI-H526 cell growth in a cell viability assay.

A4-Fuk = format: functional, cell-based;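 further: growth inhibition of A4-Fuk cells, read out by a cell viability assay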
Description: SANGER: Inhibition of human A4-Fuk cell growth in a cell viability assay.

NCI-H69 = format: functional, cell-based;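 further: growth inhibition of the cell line, read out with a cell viability assay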
Description: SANGER: Inhibition of human NCI-H69 cell growth in a cell viability assay.

OVCAR-4 = format: functional, cell-based;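 further: growth inhibition of human OVCAR-4 cells, measured with a cell viability assay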
Description: SANGER: Inhibition of human OVCAR-4 cell growth in a cell viability assay.

SW872 = format: functional, cell-based;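 further: growth inhibition of SW872 cells, read out by a viability assay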
Description: SANGER: Inhibition of human SW872 cell growth in a cell viability assay.

RPMI-8866 = format: functional, cell-based
Description: SANGER: Inhibition of human RPMI-8866 cell growth in a cell viability assay.

EW-18 = format: functional, cell-based;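 further: growth inhibition of EW-18 cells, read out by a cell viability assay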
Description: SANGER: Inhibition of human EW-18 cell growth in a cell viability assay.

MPP-89 = format: functional, cell-based;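 further: growth inhibition of human MPP-89 cells, read out with a cell viability assay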
Description: SANGER: Inhibition of human MPP-89 cell growth in a cell viability assay.

RS4-11 = format: functional, cell-based;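 further: growth inhibition of RS4-11 cells, read out by a cell viability assay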
Description: SANGER: Inhibition of human RS4-11 cell growth in a cell viability assay.

PSN1 = format: functional, cell-based;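 further: suppression of growth of human PSN1 cells, read out by a cell viability assay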
Description: SANGER: Inhibition of human PSN1 cell growth in a cell viability assay.

QIMR-WIL = format: functional, cell-based;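 further: growth inhibition of QIMR-WIL cells, read out with a cell viability assay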
Description: SANGER: Inhibition of human QIMR-WIL cell growth in a cell viability assay.

NB6 = format: functional, cell-based;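 further: growth inhibition of NB6 cells, read out by a cell viability assay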
Description: SANGER: Inhibition of human NB6 cell growth in a cell viability assay.

GI-ME-N = format: functional, cell-based;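 further: growth inhibition of human GI-ME-N cells, read out with a cell viability assay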
Description: SANGER: Inhibition of human GI-ME-N cell growth in a cell viability assay.

ES8 = format: functional, cell-based;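 further: growth inhibition of human ES8 cells, read out with a cell viability assay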
Description: SANGER: Inhibition of human ES8 cell growth in a cell viability assay.

HOP-62 = format: functional, cell-based;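 further: cell growth inhibition determined with a viability assay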
Description: SANGER: Inhibition of human HOP-62 cell growth in a cell viability assay.

DK-MG = format: functional, cell-based;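 further: growth inhibition of DK-MG cells, read out with a cell viability assay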
Description: SANGER: Inhibition of human DK-MG cell growth in a cell viability assay.

HCE-T = format: functional, cell-based;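 further: cell viability assay read-out, reporting inhibition of HCE-T cell growth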
Description: SANGER: Inhibition of human HCE-T cell growth in a cell viability assay.

HH = format: functional, cell-based
Description: SANGER: Inhibition of human HH cell growth in a cell viability assay.

TE-1 = format: functional, cell-based;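 further: growth inhibition of the human TE-1 cell line, read out with a cell viability assay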
Description: SANGER: Inhibition of human TE-1 cell growth in a cell viability assay.

SHP77 = format: functional, cell-based, SHP-77;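 further: growth inhibition of human SHP-77 cells measured by a cell viability assay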
Description: SANGER: Inhibition of human SHP-77 cell growth in a cell viability assay.

NMC-G1 = format: functional, cell-based;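 further: growth inhibition of the NMC-G1 cell line, measured with a cell viability read-out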
Description: SANGER: Inhibition of human NMC-G1 cell growth in a cell viability assay.

NOS-1 = format: functional, cell-based;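 further: growth inhibition of the human NOS-1 cell line, read out with a cell viability assay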
Description: SANGER: Inhibition of human NOS-1 cell growth in a cell viability assay.

SBC-5 = format: functional, cell-based;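 further: cell viability assay read-out, IC50 is the concentration that inhibits growth of the cells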
Description: SANGER: Inhibition of human SBC-5 cell growth in a cell viability assay.

GCIY = format: functional, cell-based;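 further: growth inhibition of the human GCIY cell line, read out by a cell viability assay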
Description: SANGER: Inhibition of human GCIY cell growth in a cell viability assay.

IST-SL1 = format: functional, cell-based;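 further: growth inhibition of human IST-SL1 cells, read out with a cell viability assay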
Description: SANGER: Inhibition of human IST-SL1 cell growth in a cell viability assay.

LAN-6 = format: functional, cell-based;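 further: growth inhibition of LAN-6 cells, determined with a cell viability assay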
Description: SANGER: Inhibition of human LAN-6 cell growth in a cell viability assay.

MDA-MB-175-VII = format: functional, cell-based
HAL-01 = format: functional, cell-based;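 further: growth inhibition of human HAL-01 cells, read out with a cell viability assay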
Description: SANGER: Inhibition of human HAL-01 cell growth in a cell viability assay.

SF-268 = format: functional, cell-based;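 further: growth inhibition of SF-268 cells determined with a cell viability assay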
Description: SANGER: Inhibition of human SF268 cell growth in a cell viability assay.

MFH-ino = format: functional, cell-based;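 further: growth inhibition of human MFH-ino cells, read out by a cell viability assay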
Description: SANGER: Inhibition of human MFH-ino cell growth in a cell viability assay.

CHP-212 = format: functional, cell-based
Description: SANGER: Inhibition of human CHP-212 cell growth in a cell viability assay.

ACN = format: functional, cell-based;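 further: growth inhibition of the human ACN cell line, read out via cell viability testing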
Description: SANGER: Inhibition of human ACN cell growth in a cell viability assay.

P30-OHK = format: functional, cell-based;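 further: growth inhibition of the P30-OHK cell line, read out with a cell viability assay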
Description: SANGER: Inhibition of human P30-OHK cell growth in a cell viability assay.

LS-411N = format: functional, cell-based
Lu-65 = format: functional, cell-based;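 further: growth inhibition of Lu-65 cancer cells, read out by a cell viability assay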
Description: SANGER: Inhibition of human LU-65 cell growth in a cell viability assay.

SCC-15 = format: functional, cell-based;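 further: growth inhibition of SCC-15 cells, read out with a cell viability assay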
Description: SANGER: Inhibition of human SCC-15 cell growth in a cell viability assay.

HCC1187 = format: functional, cell-based;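 further: growth inhibition of HCC1187 cells, read out with a cell viability assay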
Description: SANGER: Inhibition of human HCC1187 cell growth in a cell viability assay.

SJRH30 = format: functional, cell-based;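 further: growth inhibition of human SJRH30 cells, read out with a cell viability assay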
Description: SANGER: Inhibition of human SJRH30 cell growth in a cell viability assay.

ESS-1 = format: functional, cell-based;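 further: growth inhibition of human ESS-1 cells, read out by a cell viability assay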
Description: SANGER: Inhibition of human ESS-1 cell growth in a cell viability assay.

NCI-H209 = format: functional, cell-based;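 further: growth inhibition of human NCI-H209 cells, measured by a cell viability assay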
Description: SANGER: Inhibition of human NCI-H209 cell growth in a cell viability assay.

COLO-320-HSR = format: functional, cell-based;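 further: growth inhibition of COLO-320-HSR cells, determined with a cell viability assay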
Description: SANGER: Inhibition of human COLO-320-HSR cell growth in a cell viability assay.

CAS-1 = format: functional, cell-based;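 further: growth inhibition of CAS-1 cells, measured with a cell viability assay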
Description: SANGER: Inhibition of human CAS-1 cell growth in a cell viability assay.

NCI-H720 = format: functional, cell-based;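 further: growth inhibition of human NCI-H720 cells determined by a cell viability assay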
Description: SANGER: Inhibition of human NCI-H720 cell growth in a cell viability assay.

HCE-4 = format: functional, cell-based;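 further: cell viability assay measuring inhibition of growth in the human HCE-4 cell line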
Description: SANGER: Inhibition of human HCE-4 cell growth in a cell viability assay.

NKM-1 = format: functional, cell-based
Description: SANGER: Inhibition of human NKM-1 cell growth in a cell viability assay.

SK-MEL-2 = format: functional, cell-based
Description: SANGER: Inhibition of human SK-MEL-2 cell growth in a cell viability assay.

BHY = format: functional, cell-based
Description: SANGER: Inhibition of human BHY cell growth in a cell viability assay.

EOL1 = format: functional, cell-based
Description: SANGER: Inhibition of human EoL-1-cell cell growth in a cell viability assay.

HCT-116 = format: functional, cell-based
Description: SANGER: Inhibition of human HCT-116 cell growth in a cell viability assay.

LB2518-MEL = format: functional, cell-based
Description: SANGER: Inhibition of human LB2518-MEL cell growth in a cell viability assay.

SJSA-1 = format: functional, cell-based
Description: SANGER: Inhibition of human SJSA-1 cell growth in a cell viability assay.

LS-1034 = format: functional, cell-based
Description: SANGER: Inhibition of human LS-1034 cell growth in a cell viability assay.

DJM-1 = format: functional, cell-based
Description: SANGER: Inhibition of human DJM-1 cell growth in a cell viability assay.

JVM-2 = format: functional, cell-based
Description: SANGER: Inhibition of human JVM-2 cell growth in a cell viability assay.

O=c1[nH]c2ccccc2n1C1CCN(Cc2ccc(-c3nc4cc5[nH]cnc5cc4nc3-c3ccccc3)cc2)CC1
IC50 (LS-123): > 2.56 µM
IC50 (COLO-829): > 2.56 µM
IC50 (NB10): > 2.56 µM
IC50 (UACC-257): > 2.56 µM
IC50 (U2OS): > 2.56 µM
IC50 (NCI-H1581): > 2.56 µM
IC50 (OVCAR-5): > 2.56 µM
IC50 (SNU-C2B): > 2.56 µM
IC50 (AM-38): > 2.56 µM
IC50 (K5): > 2.56 µM
IC50 (NCI-H747): > 2.56 µM
IC50 (NCI-H526): > 2.56 µM
IC50 (A4-Fuk): 1.86 µM
IC50 (NCI-H69): > 2.56 µM
IC50 (OVCAR-4): > 2.56 µM
IC50 (SW872): > 2.56 µM
IC50 (RPMI-8866): > 2.56 µM
IC50 (EW-18): > 2.56 µM
IC50 (MPP-89): > 2.56 µM
IC50 (RS4-11): > 2.56 µM
IC50 (PSN1): > 2.56 µM
IC50 (QIMR-WIL): > 2.56 µM
IC50 (NB6): > 2.56 µM
IC50 (GI-ME-N): > 2.56 µM
IC50 (ES8): > 2.56 µM
IC50 (HOP-62): > 2.56 µM
IC50 (DK-MG): > 2.56 µM
IC50 (HCE-T): > 2.56 µM
IC50 (HH): > 2.56 µM
IC50 (TE-1): > 2.56 µM
IC50 (SHP77): > 2.56 µM
IC50 (NMC-G1): > 2.56 µM
IC50 (NOS-1): 1.37 µM
IC50 (SBC-5): > 2.56 µM
IC50 (GCIY): > 2.56 µM
IC50 (IST-SL1): > 2.56 µM
IC50 (LAN-6): > 2.56 µM
IC50 (MDA-MB-175-VII): > 2.56 µM
IC50 (HAL-01): > 2.56 µM
IC50 (SF-268): > 2.56 µM
IC50 (MFH-ino): > 2.56 µM
IC50 (CHP-212): > 2.56 µM
IC50 (ACN): > 2.56 µM
IC50 (P30-OHK): > 2.56 µM
IC50 (LS-411N): 1.25 µM
IC50 (Lu-65): > 2.56 µM
IC50 (SCC-15): > 2.56 µM
IC50 (HCC1187): > 2.56 µM
IC50 (SJRH30): > 2.56 µM
IC50 (ESS-1): > 2.56 µM
IC50 (NCI-H209): > 2.56 µM
IC50 (COLO-320-HSR): > 2.56 µM
IC50 (CAS-1): > 2.56 µM
IC50 (NCI-H720): > 2.56 µM
IC50 (HCE-4): > 2.56 µM
IC50 (NKM-1): > 2.56 µM
IC50 (SK-MEL-2): > 2.56 µM
IC50 (BHY): > 2.56 µM
IC50 (EOL1): > 2.56 µM
IC50 (HCT-116): > 2.56 µM
IC50 (LB2518-MEL): > 2.56 µM
IC50 (SJSA-1): > 2.56 µM
IC50 (LS-1034): > 2.56 µM
IC50 (DJM-1): > 2.56 µM
IC50 (JVM-2): > 2.56 µM

CC(O)(CS(=O)(=O)c1ccc(F)cc1)C(=O)Nc1ccc(C#N)c(C(F)(F)F)c1 (stereo not given) [BICALUTAMIDE]
IC50 (LS-123): > 1.02 µM
IC50 (COLO-829): > 1.02 µM
IC50 (NB10): > 1.02 µM
IC50 (UACC-257): > 1.02 µM
IC50 (U2OS): > 1.02 µM
IC50 (NCI-H1581): > 1.02 µM
IC50 (OVCAR-5): > 1.02 µM
IC50 (SNU-C2B): > 1.02 µM
IC50 (AM-38): > 1.02 µM
IC50 (K5): > 1.02 µM
IC50 (NCI-H747): > 1.02 µM
IC50 (NCI-H526): > 1.02 µM
IC50 (A4-Fuk): > 1.02 µM
IC50 (NCI-H69): > 1.02 µM
IC50 (OVCAR-4): > 1.02 µM
IC50 (SW872): > 1.02 µM
IC50 (RPMI-8866): > 1.02 µM
IC50 (EW-18): > 1.02 µM
IC50 (MPP-89): > 1.02 µM
IC50 (RS4-11): > 1.02 µM
IC50 (PSN1): > 1.02 µM
IC50 (QIMR-WIL): > 1.02 µM
IC50 (NB6): > 1.02 µM
IC50 (GI-ME-N): > 1.02 µM
IC50 (ES8): > 1.02 µM
IC50 (HOP-62): > 1.02 µM
IC50 (DK-MG): > 1.02 µM
IC50 (HCE-T): > 1.02 µM
IC50 (HH): > 1.02 µM
IC50 (TE-1): > 1.02 µM
IC50 (SHP77): > 1.02 µM
IC50 (NMC-G1): > 1.02 µM
IC50 (NOS-1): > 1.02 µM
IC50 (SBC-5): > 1.02 µM
IC50 (GCIY): > 1.02 µM
IC50 (IST-SL1): > 1.02 µM
IC50 (LAN-6): > 1.02 µM
IC50 (MDA-MB-175-VII): > 1.02 µM
IC50 (HAL-01): > 1.02 µM
IC50 (SF-268): > 1.02 µM
IC50 (MFH-ino): > 1.02 µM
IC50 (CHP-212): > 1.02 µM
IC50 (ACN): > 1.02 µM
IC50 (P30-OHK): > 1.02 µM
IC50 (LS-411N): > 1.02 µM
IC50 (Lu-65): > 1.02 µM
IC50 (SCC-15): > 1.02 µM
IC50 (HCC1187): > 1.02 µM
IC50 (SJRH30): > 1.02 µM
IC50 (ESS-1): > 1.02 µM
IC50 (NCI-H209): > 1.02 µM
IC50 (COLO-320-HSR): > 1.02 µM
IC50 (CAS-1): > 1.02 µM
IC50 (NCI-H720): > 1.02 µM
IC50 (HCE-4): > 1.02 µM
IC50 (NKM-1): > 1.02 µM
IC50 (SK-MEL-2): > 1.02 µM
IC50 (BHY): > 1.02 µM
IC50 (EOL1): > 1.02 µM
IC50 (HCT-116): > 1.02 µM
IC50 (LB2518-MEL): > 1.02 µM
IC50 (SJSA-1): > 1.02 µM
IC50 (LS-1034): > 1.02 µM
IC50 (DJM-1): > 1.02 µM
IC50 (JVM-2): > 1.02 µM

Reference: ChEMBL document CHEMBL1201861, “Genomics of Drug Sensitity in Cancer screening data, Wellcome Trust Sanger Institute”
